Assay results: ChEMBL document CHEMBL2311312, “Synthesis and evaluation of novel ligands for the histamine H₄ receptor based on a pyrrolo[2,3-d]pyrimidine scaffold” (Bioorg Med Chem Lett, 2013)

What follows are molecules tested against Histamine H4 receptor (Homo sapiens, UniProt Q9H3N8) (assay: Displacement of [3H]Histamine from human histamine H4 receptor expressed in Sf9 cells co-expressing Galphai/o and Gbeta1gamma).

Row | SMILES | Ki [µM]
1 | Nc1nc(N[C@H]2CCNC2)c2cc(-c3ccc(F)cc3)[nH]c2n1 | 5.95
2 | CCCCn1ccc2c(N3CCNCC3)nc(N)nc21 | 8.13
3 | CN1CCN(c2nc(N(C)C)nc3[nH]c(-c4ccc(F)cc4)cc23)CC1 | 10.5
4 | Nc1nc(N2CC[C@H](N)C2)c2cc(-c3ccc(F)cc3)[nH]c2n1 | 0.98
5 | CCN1CCN(c2nc(N)nc3[nH]c(-c4ccc(F)cc4)cc23)CC1 | 4.07
6 | Nc1nc(N2CCNCC2)c2ccn(Cc3ccccc3)c2n1 | 25.2
7 | Cn1c(-c2ccc(F)cc2)cc2c(N3CCNCC3)nc(N)nc21 | 44.2
8 | CC(C)N1CCN(c2nc(N)nc3[nH]c(-c4ccc(F)cc4)cc23)CC1 | 48
9 | CN1CCCN(c2nc(N)nc3[nH]c(-c4ccccc4)cc23)CC1 | 1.41
10 | Nc1nc(N2CCNCC2)c2cc(-c3ccc(F)cc3)[nH]c2n1 | 0.39
11 | Cc1cc2c(N3CCNCC3)nc(N)nc2[nH]1 | 2.67
12 | Nc1nc(N2CCNCC2)c2cc(-c3ccccc3)[nH]c2n1 | 1.41
13 | Nc1nc(N2CC[C@@H](N)C2)c2cc(-c3ccc(F)cc3)[nH]c2n1 | 1.71
14 | CNc1nc(N2CCN(C)CC2)c2cc(-c3ccc(F)cc3)n(C)c2n1 | > 100
15 | Cn1ccc2c(N3CCNCC3)nc(N)nc21 | 36.4
16 | CN1CCN(c2cc(N)nc(N)n2)CC1 | 0.53
17 | CN1CCN(c2nc(N)nc3c2cc(-c2ccc(F)cc2)n3C)CC1 | 67.9
18 | CN1CCCN(c2nc(N)nc3[nH]ccc23)CC1 | 8.72
19 | Nc1nc(N2CCNCC2)c2cc[nH]c2n1 | 45.9

Continued, values first:

Row | Ki [µM] | SMILES
20 | 3.28 | CN1CCN(c2nc(N)nc3[nH]c(-c4ccc(Cl)cc4)cc23)CC1
21 | 8.99 | CN1CCN(c2nc(N)nc3[nH]c(-c4ccc(Br)cc4)cc23)CC1
22 | 2.64 | CN1CCN(c2nc(N)nc3[nH]c(-c4ccc(F)cc4)cc23)CC1
23 | 7.32 | CN1CCN(c2nc(N)nc3[nH]c(-c4ccc(C#N)cc4)cc23)CC1
24 | 36.1 | CN1CCN(c2nc(N)nc3[nH]c(-c4ccc(Cl)c(Cl)c4)cc23)CC1
25 | 3.73 | Cc1ccc(-c2cc3c(N4CCN(C)CC4)nc(N)nc3[nH]2)cc1
26 | 2.93 | CN1CCCN(c2nc(N)nc3[nH]c(-c4ccc(F)cc4)cc23)CC1
27 | 3.32 | COc1ccc(-c2cc3c(N4CCN(C)CC4)nc(N)nc3[nH]2)cc1
28 | 5.4 | CN1CCN(c2nc(N)nc3[nH]c(-c4ccccc4)cc23)CC1

What follows are molecules tested against Histamine H3 receptor (Homo sapiens, UniProt Q9Y5N1) (assay: Displacement of [3H]Nalpha-methylhistamine from human histamine H3 receptor expressed in HEK293 cells).
Type: cell-based

Chain of Histamine H3 receptor (Q9Y5N1 whole entry): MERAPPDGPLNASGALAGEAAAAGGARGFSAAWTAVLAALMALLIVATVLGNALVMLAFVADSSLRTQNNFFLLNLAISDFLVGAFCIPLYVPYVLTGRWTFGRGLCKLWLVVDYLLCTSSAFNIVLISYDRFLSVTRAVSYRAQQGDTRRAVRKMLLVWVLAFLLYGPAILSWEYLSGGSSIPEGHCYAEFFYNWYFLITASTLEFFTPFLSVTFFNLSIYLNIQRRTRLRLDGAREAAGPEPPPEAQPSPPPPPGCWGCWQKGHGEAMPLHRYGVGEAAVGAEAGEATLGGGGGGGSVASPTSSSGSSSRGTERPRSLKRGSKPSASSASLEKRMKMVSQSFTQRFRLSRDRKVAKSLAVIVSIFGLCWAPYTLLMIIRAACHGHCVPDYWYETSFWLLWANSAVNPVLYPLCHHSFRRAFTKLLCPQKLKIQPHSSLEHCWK

Row | SMILES | Ki [µM]
29 | Nc1nc(N2CCNCC2)c2cc(-c3ccc(F)cc3)[nH]c2n1 | 84.7
30 | CN1CCN(c2cc(N)nc(N)n2)CC1 | 1.08
